Source: patent publication US12152048B2, “Nitroxoline prodrug and use thereof” (Jiangsu Yahong Meditech Co., Ltd., priority 2018, dated 2024)
≈ marks a conversion by molar mass, not a printed value.

Experiments:
[1] = Determination of water solubility in phosphate buffer; format: physicochemical; settings: for solubility at 24 h: aqueous buffer, thermodynamic from solid, phosphate buffer pH 7.4, room temperature
Outline: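 Thermodynamic solubility: compound concentration measured by LC/MS/MS in the vacuum filtrate after 24 h shaking at room temperature of 2 mg powder in 500 μL phosphate buffer at pH 1.2, 4.5, 6.8 or 7.4.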

[2] = Stability in mouse liver microsome; format: in vitro ADME; settings: 2 μM, 37° C., 30 minutes
[3] = Stability in mouse plasma; format: in vitro ADME
Source text: (§1) Experimental instruments: thermostatic shaker (SHA-B, Guohua Electric Appliance Co., Ltd.); centrifuge (5810R, Eppendorf); mass spectrometry (AP4000, Applied Biosystems, USA); liquid chromatography (LC-30AD, Shimadzu); sample injector (CTC Analytics AG System, CTC).
(§2) Test animals: plasma of human (batch number: BRH1343165), rat (batch number: RAT336728), mouse (batch number: MSE280000), dog (batch number: BGL99137) and monkey (batch number: PH-Monkey-20180821) are purchased from Shanghai Sixin Biological Technology Co., Ltd.
(§3) Experimental process: the compound of the present invention was dissolved in an organic solvent to obtain a 1 mM working solution. 3 μL of the working solution were added to 597 μL of pre-incubated human or rat plasma and mixed well. 50 μL of the solution were immediately taken out as the 0 minute sample. The remaining sample was incubated at 37° C., and 50 μL of sample were taken out at 15, 30, 60 and 120 minutes respectively. All the samples taken out were immediately processed to precipitate protein, and centrifuged to obtain a supermate for the determination of the compound concentration by LC/MS/MS.

Stability in dog plasma = format: in vitro ADME
Source text: as §1, §2, §3

[4] = Stability in monkey plasma; format: in vitro ADME
Source text: as §1, §2, §3

[5] = Stability in liver microsome, overall conclusion (species not stated); format: in vitro ADME; settings: conclusion in words
[6] = Stability in human plasma
[7] = Stability in dog liver microsome; settings: 2 μM, 37° C., 30 minutes
[8] = Stability in rat liver microsome; settings: 2 μM, 37° C., 30 minutes
Procedure: Experimental instruments: thermostatic shaker (SHA-B, Guohua Electric Appliance Co., Ltd.); centrifuge (5810R, Eppendorf); mass spectrometry (API4000, Applied Biosystems, USA); liquid chromatography (LC-30AD, Shimadzu); sample injector (CTC Analytics AG System, CTC).
Experimental process: 25 μg/mL alamethicin (Aldrich), 5 mM magnesium chloride and 0.5 mg/mL microsome (XENOTECH) were added to 100 mM phosphate buffer to obtain a coenzyme-free reaction solution. A portion of the coenzyme-free reaction solution was added with 1 mM reductive nicotinamide adenine dinucleotide phosphate (Aldrich) and 5 mM uridine diphosphate glucuronic acid (Aldrich) to obtain a coenzyme-containing reaction solution. The working solution of the compound of the present invention was added to the two reaction solutions so that the final concentration of the compound was 2 μM. Immediately after mixing well, 50 μL of the solution were taken out as the 0 minute sample, and 50 μL of the remaining sample were taken out after incubating at 37° C. for 30 minutes. All the samples taken out were immediately processed to precipitate protein, and centrifuged to obtain a supernate for the determination of the compound concentration by LC/MS/MS.

[9] = Stability in human liver microsome; settings: 2 μM, 37° C., 30 minutes
[10] = Stability in plasma, overall conclusion (species not stated); settings: conclusion in words

Source text for Stability in rat plasma: as §1, §2, §3

SMILES | solubility at 24 h [1] | Percentage of the compound remaining in mouse liver microsome ([2]; with coenzyme) | Percentage of the compound remaining in mouse liver microsome ([2]; without coenzyme) | Percentage of the compound remaining in plasma (Stability in dog plasma; 0 minute) | Percentage of the compound remaining in plasma (Stability in dog plasma; 37° C., 15 minutes) | Percentage of the compound remaining in plasma (Stability in dog plasma; 37° C., 30 minutes) | Percentage of the compound remaining in plasma (Stability in dog plasma; 37° C., 60 minutes) | Percentage of the compound remaining in plasma (Stability in dog plasma; 37° C., 120 minutes) | stability in microsome [5] | Percentage of the compound remaining in plasma (Stability in rat plasma; 0 minute) | Percentage of the compound remaining in plasma (Stability in rat plasma; 37° C., 15 minutes) | Percentage of the compound remaining in plasma (Stability in rat plasma; 37° C., 30 minutes) | Percentage of the compound remaining in plasma (Stability in rat plasma; 37° C., 60 minutes) | Percentage of the compound remaining in dog liver microsome ([7]; with coenzyme) | Percentage of the compound remaining in dog liver microsome ([7]; without coenzyme) | Percentage of the compound remaining in rat liver microsome ([8]; with coenzyme) | Percentage of the compound remaining in rat liver microsome ([8]; without coenzyme) | Percentage of the compound remaining in human liver microsome ([9]; with coenzyme) | Percentage of the compound remaining in human liver microsome ([9]; without coenzyme) | stability in plasma [10] | also measured
CN1CCN(C(=O)OCOc2ccc([N+](=O)[O-])c3cccnc23)CC1 [Compound 6, (5-nitroquinolin-8-yloxy)methyl 4-methylpiperazine-1-carboxylate] | 985 µg/mL (≈ 2840 µM) | 51.08% | 116.52% | 100.0% | 111.5% | 111.9% | 114.6% | 105.9% | high stability | 100.0% | 95.5% | 98.8% | 90.2% | 38.76% | 114.53% | 75.71% | 99.73% | 109.46% | 118.37% | high stability | Percentage of the compound remaining in plasma ([3]; 0 minute): 100.0%; Percentage of the compound remaining in plasma ([3]; 37° C., 15 minutes): 97.7%; Percentage of the compound remaining in plasma ([3]; 37° C., 30 minutes): 95.4%; Percentage of the compound remaining in plasma ([3]; 37° C., 60 minutes): 98.9%; Percentage of the compound remaining in plasma ([3]; 37° C., 120 minutes): 92.1%; Percentage of the compound remaining in plasma ([4]; 0 minute): 100.0%; Percentage of the compound remaining in plasma ([4]; 37° C., 15 minutes): 98.3%; Percentage of the compound remaining in plasma ([4]; 37° C., 30 minutes): 101.1%; Percentage of the compound remaining in plasma ([4]; 37° C., 60 minutes): 91.6%; Percentage of the compound remaining in plasma ([4]; 37° C., 120 minutes): 98.9%; Percentage of the compound remaining in plasma (Stability in rat plasma; 37° C., 120 minutes): 89.4%; Percentage of the compound remaining in plasma ([6]; 0 minute): 100.0%; Percentage of the compound remaining in plasma ([6]; 37° C., 15 minutes): 97.5%; Percentage of the compound remaining in plasma ([6]; 37° C., 30 minutes): 106.0%; Percentage of the compound remaining in plasma ([6]; 37° C., 60 minutes): 95.0%; Percentage of the compound remaining in plasma ([6]; 37° C., 120 minutes): 99.3%
COC(=O)CNC(=O)OCOc1ccc([N+](=O)[O-])c2cccnc12 [Compound 53, methyl 2-(((5-nitroquinolin-8-yloxy)methoxy)formamido)acetate] | 45.5 µg/mL (≈ 136 µM) | 32.13% | 55.80% | 100.0% | 96.3% | 92.3% | 78.6% | 67.3% | high stability |  |  |  |  | 70.38% | 82.59% | 54.58% | 54.77% | 79.98% | 84.61% | high stability | 
O=C(OCOc1ccc([N+](=O)[O-])c2cccnc12)N1CCOCC1 [Compound 7, (5-nitroquinolin-8-yloxy)methyl morpholine-4-carboxylate] | 134 µg/mL (≈ 403 µM) | 55.15% | 82.50% | 100.0% | 104.0% | 107.2% | 106.5% | 101.8% | high stability | 100.0% | 94.0% | 98.6% | 95.0% | 28.07% | 83.78% | 69.51% | 90.84% | 91.44% | 96.71% | high stability | Percentage of the compound remaining in plasma ([3]; 0 minute): 100.0%; Percentage of the compound remaining in plasma ([3]; 37° C., 15 minutes): 98.5%; Percentage of the compound remaining in plasma ([3]; 37° C., 30 minutes): 98.8%; Percentage of the compound remaining in plasma ([3]; 37° C., 60 minutes): 96.1%; Percentage of the compound remaining in plasma ([3]; 37° C., 120 minutes): 89.3%; Percentage of the compound remaining in plasma ([4]; 0 minute): 100.0%; Percentage of the compound remaining in plasma ([4]; 37° C., 15 minutes): 96.5%; Percentage of the compound remaining in plasma ([4]; 37° C., 30 minutes): 105.9%; Percentage of the compound remaining in plasma ([4]; 37° C., 60 minutes): 99.0%; Percentage of the compound remaining in plasma ([4]; 37° C., 120 minutes): 98.7%; Percentage of the compound remaining in plasma (Stability in rat plasma; 37° C., 120 minutes): 91.6%; Percentage of the compound remaining in plasma ([6]; 0 minute): 100.0%; Percentage of the compound remaining in plasma ([6]; 37° C., 15 minutes): 93.5%; Percentage of the compound remaining in plasma ([6]; 37° C., 30 minutes): 97.8%; Percentage of the compound remaining in plasma ([6]; 37° C., 60 minutes): 99.6%; Percentage of the compound remaining in plasma ([6]; 37° C., 120 minutes): 105.2%
CN(CC(O)CO)C(=O)OCOc1ccc([N+](=O)[O-])c2cccnc12 (centres unmarked) [Compound 52, (5-nitroquinolin-8-yloxy)methyl 2,3-dihydroxypropyl(methyl)carbamate] | 687 µg/mL (≈ 1960 µM) | 95.16% | 105.69% |  |  |  |  |  | high stability | 100.0% | 102.5% | 90.1% | 84.6% | 85.67% | 91.82% | 101.34% | 99.39% | 102.24% | 108.46% | high stability | water solubility compared with nitroxoline ([1]; conclusion in words): increased by several times; Percentage of the compound remaining in plasma (Stability in rat plasma; 37° C., 120 minutes): 71.3%; Percentage of the compound remaining in plasma ([6]; 0 minute): 100.0%; Percentage of the compound remaining in plasma ([6]; 37° C., 15 minutes): 95.6%; Percentage of the compound remaining in plasma ([6]; 37° C., 30 minutes): 94.1%; Percentage of the compound remaining in plasma ([6]; 37° C., 60 minutes): 89.2%; Percentage of the compound remaining in plasma ([6]; 37° C., 120 minutes): 83.3%
